Test results: patent US20110136762A1, “FUNGICIDAL PYRIDAZINES” (E.I. Du Pont de Nemours and Company, priority 2008, published 2011)
Marks after values point to notes of the source that are not given here.

Experiments:
Assay type in all cases: in vivo
Settings in all cases: 40 ppm (marked *), 100 = 100% disease control, 0 = no disease control relative to controls
Erysiphe graminis = assay: Test A: wheat powdery mildew, preventive spray on wheat seedlings, visual disease rating
Summary of the method: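 Seedlings were sprayed to run-off with test suspension at 200 ppm (500 g/ha), or 40 ppm where marked. They were dust-inoculated with spores the next day and kept 8 days at 20 °C. Disease was then rated visually.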

[1] = test system: Puccinia recondita f. sp. tritici; assay: Test B: wheat leaf rust, preventive spray on wheat seedlings, visual disease rating
Summary of the method: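 Seedlings were sprayed to run-off at 200 ppm (500 g/ha), or at 40 ppm where marked *, then inoculated with spores the next day. Plants were held at saturated humidity at 20° C for 24 h and then in a growth chamber at 20° C for 7 days before visual disease rating.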

Septoria tritici = assay: Test C: wheat leaf blotch, preventive spray on wheat seedlings, visual disease rating
Summary of the method: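 Wheat seedlings were sprayed to run-off with test suspension at 200 ppm (500 g/ha), or at 40 ppm where marked *. They were inoculated with spores the next day and held in saturated atmosphere at 20° C for 48 h. After a further 19 days in a growth chamber at 20° C, disease was rated visually.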

Septoria nodorum = assay: Test D: wheat glume blotch, preventive spray on wheat seedlings, visual disease rating
Summary of the method: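 Wheat seedlings sprayed to run-off with compound at 200 ppm (500 g/ha), or 40 ppm where marked, then inoculated with Septoria nodorum spores the next day. Held 48 h in saturated atmosphere at 20° C, then 7 days in a growth chamber at 20° C before visual disease rating.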

Alternaria solani = assay: Test E: tomato early blight, preventive spray on tomato seedlings, visual disease rating
Summary of the method: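 Tomato seedlings sprayed to run-off with test suspension at 200 ppm (equivalent to 500 g/ha), or 40 ppm where marked "*", as a preventive treatment before A. solani challenge. Disease then rated visually.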

Botrytis cinerea = assay: Test F: tomato Botrytis, preventive spray on tomato seedlings, visual disease rating
Summary of the method: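 Preventive test: tomato seedlings sprayed to run-off at 200 ppm (500 g/ha) or, where marked *, 40 ppm, then inoculated next day with B. cinerea spores. Kept 48 h at saturated humidity and 20° C, then 3 days at 24° C. Disease assessed visually.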

SMILES | pest or weed control at 40 ppm (Erysiphe graminis; Blumeria graminis, 192 h) | pest or weed control at 40 ppm ([1]; 192 h) | pest or weed control at 40 ppm (Septoria tritici; Zymoseptoria tritici, 504 h) | pest or weed control at 40 ppm (Septoria nodorum; Parastagonospora nodorum) | pest or weed control at 40 ppm (Alternaria solani; Alternaria solani) | pest or weed control at 40 ppm (Botrytis cinerea; Botrytis cinerea) | Test A rating (disease control, wheat powdery mildew) (Erysiphe graminis) | Test B rating (disease control, wheat leaf rust) [1] | Test C rating (disease control, wheat leaf blotch) (Septoria tritici) | Test D rating (disease control, wheat glume blotch) (Septoria nodorum) | Test E rating (disease control, tomato early blight) (Alternaria solani) | Test F rating (disease control, tomato Botrytis) (Botrytis cinerea)
COc1cc(OC)cc(-c2c(-c3ccccc3F)nnc(Cl)c2-c2c(F)cc(F)cc2F)c1 [Compound 45, 3-chloro-5-(3,5-dimethoxyphenyl)-6-(2-fluorophenyl)-4-(2,4,6-trifluorophenyl)pyridazine] | 100% | 100% | 99% | 100% | 100% | 100% |  |  |  |  |  | 
COc1cncc(-c2c(-c3ccccc3F)nnc(C)c2-c2c(F)cc(F)cc2F)c1 [Compound 46] |  |  |  |  |  |  | 97* % | 100* % | 99* % | 0* % | 100* % | 100* %
